Assay results published in PubChem BioAssay AID330 (DTP/NCI, 2004).
Values joined by “and” are separate entries in the source; they are usually repeats but may differ in a detail not shown here. Equal entries are not always repeated. Inconclusive results and toxic doses are left out.

System: P388 leukemia ip, CD2F1 mice, survival T/C
Test: NCI In Vivo Anticancer Drug Screen. Data for tumor model P388 Leukemia (intraperitoneal) in CD2F1 (CDF1) mice
Conditions: endpoint: median survival time, higher = longer survival
Outline: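 Mice carrying the transplanted tumor received test compound or vehicle. Survival was recorded in each group, and the value is the treated-group measurement divided by that of the vehicle-treated control group.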

[1] = dose: 100.0 mg/kg/injection, schedule: Q01DX009 (ip), vehicle: saline with Tween-80
[2] = dose: 50.0 mg/kg/injection, schedule: Q01DX009 (ip), vehicle: saline with Tween-80
[3] = dose: 50.0 mg/kg/injection, schedule: Q01DX005 (ip), vehicle: saline with Tween-80
[4] = dose: 100.0 mg/kg/injection, schedule: Q01DX005 (ip), vehicle: saline with Tween-80
[5] = dose: 200.0 mg/kg/injection, schedule: Q01DX005 (ip), vehicle: saline with Tween-80
[6] = dose: 100.0 mg/kg/injection, schedule: Q04DX003 (ip), vehicle: saline with Tween-80
[7] = dose: 200.0 mg/kg/injection, schedule: Q01DX001 (ip), vehicle: Klucel (hydroxypropylcellulose) (HPC)
[8] = dose: 400.0 mg/kg/injection, schedule: Q01DX001 (ip), vehicle: Klucel (hydroxypropylcellulose) (HPC)
[9] = dose: 60.0 mg/kg/injection, schedule: Q01DX005 (ip), vehicle: saline with Tween-80
[10] = dose: 120.0 mg/kg/injection, schedule: Q01DX005 (ip), vehicle: saline with Tween-80
[11] = dose: 240.0 mg/kg/injection, schedule: Q01DX005 (ip), vehicle: saline with Tween-80
[12] = dose: 50.0 mg/kg/injection, schedule: Q01DX009 (ip), vehicle: saline
[13] = dose: 100.0 mg/kg/injection, schedule: Q01DX009 (ip), vehicle: saline
[14] = dose: 200.0 mg/kg/injection, schedule: Q01DX001 (ip), vehicle: saline with Tween-80
[15] = dose: 400.0 mg/kg/injection, schedule: Q01DX001 (ip), vehicle: saline with Tween-80
[16] = dose: 60.0 mg/kg/injection, schedule: Q01DX005 (ip), vehicle: Klucel (hydroxypropylcellulose) (HPC)
[17] = dose: 120.0 mg/kg/injection, schedule: Q01DX005 (ip), vehicle: Klucel (hydroxypropylcellulose) (HPC)
[18] = dose: 25.0 mg/kg/injection, schedule: Q01DX005 (ip), vehicle: Klucel (hydroxypropylcellulose) (HPC)
[19] = dose: 50.0 mg/kg/injection, schedule: Q01DX005 (ip), vehicle: Klucel (hydroxypropylcellulose) (HPC)
[20] = dose: 100.0 mg/kg/injection, schedule: Q01DX005 (ip), vehicle: Klucel (hydroxypropylcellulose) (HPC)
[21] = dose: 200.0 mg/kg/injection, schedule: Q01DX005 (ip), vehicle: Klucel (hydroxypropylcellulose) (HPC)
[22] = dose: 50.0 mg/kg/injection, schedule: Q01DX009 (ip), vehicle: Klucel (hydroxypropylcellulose) (HPC)
[23] = dose: 100.0 mg/kg/injection, schedule: Q01DX009 (ip), vehicle: Klucel (hydroxypropylcellulose) (HPC)
[24] = dose: 200.0 mg/kg/injection, schedule: Q01DX009 (ip), vehicle: Klucel (hydroxypropylcellulose) (HPC)

With O=C(O)c1ccccc1C(=O)O.[Cu+2].[NH-]CC[NH-] the T/C (dose: 1.25 mg/kg/injection, schedule: Q04DX002 (ip), vehicle: saline with Tween-80) was 100 % of control, the T/C (dose: 2.5 mg/kg/injection, schedule: Q04DX002 (ip), vehicle: saline with Tween-80) was 99 % of control and the T/C (dose: 5.0 mg/kg/injection, schedule: Q04DX002 (ip), vehicle: saline with Tween-80) was 98 % of control.
In the case of O=C(CCl)C(c1ccc([N+](=O)[O-])cc1)c1ccc([N+](=O)[O-])cc1, the T/C [1] is reported as 100 % of control, the T/C (dose: 200.0 mg/kg/injection, schedule: Q01DX009 (ip), vehicle: saline with Tween-80) is reported as 95 % of control and the T/C (dose: 400.0 mg/kg/injection, schedule: Q01DX009 (ip), vehicle: saline with Tween-80) is reported as 118 % of control.
For COc1ccc(C=C2C(=O)N(C)C(=O)N(C)C2=O)cc1, the T/C [2] was 112 % of control and the T/C [1] was 118 % of control.
In the case of CC1(C)NCCc2c1[nH]c1ccccc21, the T/C (dose: 50.0 mg/kg/injection, schedule: Q04DX002 (ip), vehicle: suspension in saline) is reported as 100 % of control, the T/C (dose: 100.0 mg/kg/injection, schedule: Q04DX002 (ip), vehicle: suspension in saline) is reported as 100 % of control and the T/C (dose: 200.0 mg/kg/injection, schedule: Q04DX002 (ip), vehicle: suspension in saline) is reported as 100 % of control.
With O=C1CS(=O)(=O)CN1N1CS(=O)(=O)CC1=O the T/C [3] was 102 % of control, the T/C [4] was 98 % of control and the T/C [5] was 98 % of control.
For COc1cc2c(c(OC)c1OC)CCC1C(=O)NN=C21 (configuration not stated), the T/C (dose: 12.5 mg/kg/injection, schedule: Q04DX003 (ip), vehicle: Klucel (hydroxypropylcellulose) (HPC)) was 111 % of control, the T/C (dose: 25.0 mg/kg/injection, schedule: Q04DX003 (ip), vehicle: Klucel (hydroxypropylcellulose) (HPC)) was 104 % of control and the T/C (dose: 50.0 mg/kg/injection, schedule: Q04DX003 (ip), vehicle: Klucel (hydroxypropylcellulose) (HPC)) was 111 % of control.
In the case of CCN(CC)CCCC(C)Nc1c2ccc(Cl)cc2nc2cc(N=Nc3cccc4ccccc34)c(OC)cc12 (configuration not stated), the T/C (dose: 25.0 mg/kg/injection, schedule: Q04DX003 (ip), vehicle: saline with Tween-80) is reported as 92 % of control, the T/C (dose: 50.0 mg/kg/injection, schedule: Q04DX003 (ip), vehicle: saline with Tween-80) is reported as 92 % of control and the T/C [6] is reported as 118 % of control.
O=C1Nc2ccccc2/C1=c1/sc2nc3ccccc3n2c1=O was tested, and the T/C [7] was 89 % of control and the T/C [8] was 89 % of control.
With CC(=O)c1cc2ccccc2c2ccccc12 the T/C [3] was 98 % of control, the T/C [4] was 98 % of control and the T/C [5] was 96 % of control.
In the case of N#Cc1c2c(c(=O)n3c1[nH]c1ccccc13)CCCC2, the T/C [9] is reported as 93 % of control, the T/C [10] is reported as 94 % of control and the T/C [11] is reported as 90 % of control.
With CCCCCCCCCC[N+]1([O-])CCOCC1 the T/C [12] was 100 % of control and the T/C [13] was 89 % of control.
With CCOC(=O)/C(C#N)=C\c1ccc(/C=C(\C#N)C(=O)OCC)cc1 the T/C (dose: 25.0 mg/kg/injection, schedule: Q01DX009 (ip), vehicle: saline with Tween-80) was 90 % of control, the T/C [2] was 100 % of control and the T/C [1] was 90 % of control. The T/C [6] was 95 % of control.
For CC(C)CNC(=O)c1ccc(OCC(O)CNC(C)(C)C)c(Cl)c1 (configuration not stated), the T/C (dose: 100.0 mg/kg/injection, schedule: Q04DX003 (ip), vehicle: Klucel (hydroxypropylcellulose) (HPC)) was 107 % of control and the T/C (dose: 200.0 mg/kg/injection, schedule: Q04DX003 (ip), vehicle: Klucel (hydroxypropylcellulose) (HPC)) was 102 % of control.
In the case of CCCCN1C(=O)C2C3C=CC(C2C1=O)C1C2C(=O)N(CCCC)C(=O)C2C31 (configuration not stated), the T/C (dose: 100.0 mg/kg/injection, schedule: Q01DX001 (ip), vehicle: saline with Tween-80) is reported as 93 % of control, the T/C [14] is reported as 93 % of control and the T/C [15] is reported as 90 % of control.
CCN(CC)C(=O)c1ccc2c(c1OCOC)CCC2 was tested, and the T/C [3] was 107 % of control, the T/C [4] was 97 % of control and the T/C [5] was 92 % of control.
With CN(C)CC1C2CCC(C2)C1O (configuration not stated) the T/C [3] was 98 % of control, the T/C [4] was 97 % of control and the T/C [5] was 99 % of control.
CC(C)CC1COC(=O)C(CC(C)C)NC(=O)COCC(=O)NC(CC(C)C)C(=O)OCC(CC(C)C)NC(=O)COCC(=O)N1 (configuration not stated) was tested, and the T/C [16] was 99 % of control, the T/C [17] was 100 % of control and the T/C (dose: 240.0 mg/kg/injection, schedule: Q01DX005 (ip), vehicle: Klucel (hydroxypropylcellulose) (HPC)) was 101 % of control.
CSC(=S)n1nc(C)c(N=Nc2cccc(Cl)c2Cl)c1C was tested, and the T/C [3] was 88 % of control, the T/C [4] was 88 % of control and the T/C [5] was 89 % of control.
In the case of COc1c(/C=C/C=O)cc2c(c1OC)OCO2, the T/C [18] is reported as 97 % of control, the T/C [19] is reported as 97 % of control and the T/C [20] is reported as 104 % of control. For the same compound, the T/C [21] was 100 % of control.
For C[n+]1cccc(C(=O)O)c1, the T/C (dose: 25.0 mg/kg/injection, schedule: Q01DX005 (ip), vehicle: saline) was 100 % of control, the T/C (dose: 50.0 mg/kg/injection, schedule: Q01DX005 (ip), vehicle: saline) was 101 % of control and the T/C (dose: 100.0 mg/kg/injection, schedule: Q01DX005 (ip), vehicle: saline) was 99 % of control. The T/C (dose: 200.0 mg/kg/injection, schedule: Q01DX005 (ip), vehicle: saline) was 91 % of control.
For COC(=O)C(=O)C(C(=O)C(c1ccccc1)c1ccccc1)c1nc2n(c1O)/C(=N/C(=O)Nc1ccc(Cl)cc1)N=N2 (configuration not stated), the T/C [9] was 100 % of control, the T/C [10] was 98 % of control and the T/C [11] was 99 % of control.
With O=C1C=C(O)CC2(CCCCC2)C1 the T/C [19] was 102 % of control, the T/C [20] was 100 % of control and 96 % of control and the T/C [21] was 104 % of control and 105 % of control.
With CC1CN2C(=O)C1(c1ccccc1)C(=O)NC2=S (configuration not stated) the T/C [22] was 98 % of control, the T/C [23] was 107 % of control and the T/C [24] was 100 % of control.
For C[As](C)[Se]CC1OC2OC(C)(C)OC2C2OC(C)(C)OC12 (configuration not stated), the T/C [22] was 89 % of control, the T/C [23] was 90 % of control and the T/C [24] was 92 % of control.
In the case of ClCCN(CCCN(CCCl)c1ccccc1)c1ccccc1, the T/C [14] is reported as 164 % of control, the T/C [15] is reported as 150 % of control and 157 % of control and the T/C (dose: 800.0 mg/kg/injection, schedule: Q01DX001 (ip), vehicle: saline with Tween-80) is reported as 160 % of control.
In the case of Clc1ccc(/C=C/c2ccnnc2)cc1, the T/C [12] is reported as 106 % of control, the T/C [13] is reported as 106 % of control and the T/C (dose: 200.0 mg/kg/injection, schedule: Q01DX009 (ip), vehicle: saline) is reported as 91 % of control.
O=C(Nc1ccc(-c2ccc(NC(=O)C34CC5CC(CC(C5)C3)C4)cc2)cc1)C12CC3CC(CC(C3)C1)C2 was tested, and the T/C [18] was 98 % of control and 100 % of control, the T/C [19] was 101 % of control and the T/C [20] was 89 % of control and 92 % of control. The T/C [21] was 97 % of control.
With COc1cccc2c1C(=O)c1c(O)c(C(CC(=O)O)OC3CC(N)C(O)C(C)O3)c(CO)c(O)c1C2=O (configuration not stated) the T/C (dose: 100.0 mg/kg/injection, schedule: Q04DX003 (ip), vehicle: water) was 106 % of control and the T/C (dose: 200.0 mg/kg/injection, schedule: Q04DX003 (ip), vehicle: water) was 110 % of control.
With CCOC1=NC2C(O1)C1C3C2C13 (configuration not stated) the T/C [3] was 103 % of control, the T/C [4] was 105 % of control and the T/C [5] was 105 % of control.
For O=S(=O)(O)SNCCN1CCOCC1, the T/C (dose: 6.25 mg/kg/injection, schedule: Q01DX009 (ip), vehicle: saline) was 105 % of control, the T/C (dose: 12.5 mg/kg/injection, schedule: Q01DX009 (ip), vehicle: saline) was 110 % of control and the T/C (dose: 25.0 mg/kg/injection, schedule: Q01DX009 (ip), vehicle: saline) was 110 % of control.
With Oc1cccc(N2CCN(c3cccc(O)c3)CC2)c1 the T/C [16] was 91 % of control and the T/C [17] was 89 % of control.
OC1(C2=COCCO2)CCCCC1 was tested, and the T/C (dose: 60.0 mg/kg/injection, schedule: Q01DX005 (ip), vehicle: saline) was 105 % of control, the T/C (dose: 120.0 mg/kg/injection, schedule: Q01DX005 (ip), vehicle: saline) was 110 % of control and the T/C (dose: 240.0 mg/kg/injection, schedule: Q01DX005 (ip), vehicle: saline) was 105 % of control.
For c1ccc(C2CO2)cc1 (configuration not stated), the T/C (dose: 100.0 mg/kg/injection, schedule: Q01DX001 (ip), vehicle: Klucel (hydroxypropylcellulose) (HPC)) was 106 % of control, the T/C [7] was 100 % of control and the T/C [8] was 102 % of control.
